In patent US11208412B2 (DAEGU-GYEONGBUK MEDICAL INNOVATION FOUNDATION, priority 2017, dated 2021):

Columns and labels:
Assay in all cases: Kinase selectivity, DiscoverX scanMAX Kinase assay panel (% control)
Type in all cases: binding
[1] = molecular target: T1, kinases of the scanMAX Kinase assay panel (Homo sapiens, UniProt O14578); details: CIT; 1 uM
T1 construct: purchased DiscoverX Co. (contract measurement) scanMAX Kinase assay panel
Outline: (§1)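 Each enzyme is treated with drug at 1 uM in DMSO, then signal is scaled between a positive control (0%) and DMSO (100%) to give % control. Kinases with % control under 35% are scored as inhibited.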

[2] = molecular target: T2, kinases of the scanMAX Kinase assay panel (Homo sapiens, UniProt O15264); details: p38-delta; 1 uM
T2 construct: purchased DiscoverX Co. (contract measurement) scanMAX Kinase assay panel
T2 sequence (O15264 1-365): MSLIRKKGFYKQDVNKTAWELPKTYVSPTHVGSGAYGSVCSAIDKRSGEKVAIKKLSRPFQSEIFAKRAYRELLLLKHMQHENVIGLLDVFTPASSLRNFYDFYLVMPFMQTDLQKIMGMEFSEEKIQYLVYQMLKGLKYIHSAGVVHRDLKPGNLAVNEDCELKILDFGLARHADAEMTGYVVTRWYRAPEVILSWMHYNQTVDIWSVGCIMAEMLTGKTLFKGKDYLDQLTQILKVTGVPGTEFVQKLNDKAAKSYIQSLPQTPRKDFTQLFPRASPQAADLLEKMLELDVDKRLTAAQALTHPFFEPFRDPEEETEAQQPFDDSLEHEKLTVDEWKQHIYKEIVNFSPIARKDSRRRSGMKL
Outline: as §1

[3] = molecular target: T3, kinases of the scanMAX Kinase assay panel (Homo sapiens, UniProt O94768); details: DRAK2; 1 uM
T3 construct: purchased DiscoverX Co. (contract measurement) scanMAX Kinase assay panel
T3 sequence (O94768 1-372): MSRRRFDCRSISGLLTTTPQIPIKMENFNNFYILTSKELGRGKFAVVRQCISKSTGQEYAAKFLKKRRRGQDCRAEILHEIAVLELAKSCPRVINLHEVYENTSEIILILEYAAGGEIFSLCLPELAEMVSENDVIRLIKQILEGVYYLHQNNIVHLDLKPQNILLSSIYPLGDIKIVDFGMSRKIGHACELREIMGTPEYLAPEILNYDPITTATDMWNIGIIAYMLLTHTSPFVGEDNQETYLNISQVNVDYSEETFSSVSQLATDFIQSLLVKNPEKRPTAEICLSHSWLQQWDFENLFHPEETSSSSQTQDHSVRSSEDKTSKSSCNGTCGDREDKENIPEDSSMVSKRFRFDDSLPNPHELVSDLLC
Outline: as §1

[4] = molecular target: T4, kinases of the scanMAX Kinase assay panel (Homo sapiens, UniProt P09619); details: PDGFRB; 1 uM
T4 construct: purchased DiscoverX Co. (contract measurement) scanMAX Kinase assay panel
T4 sequence (P09619 33-1106): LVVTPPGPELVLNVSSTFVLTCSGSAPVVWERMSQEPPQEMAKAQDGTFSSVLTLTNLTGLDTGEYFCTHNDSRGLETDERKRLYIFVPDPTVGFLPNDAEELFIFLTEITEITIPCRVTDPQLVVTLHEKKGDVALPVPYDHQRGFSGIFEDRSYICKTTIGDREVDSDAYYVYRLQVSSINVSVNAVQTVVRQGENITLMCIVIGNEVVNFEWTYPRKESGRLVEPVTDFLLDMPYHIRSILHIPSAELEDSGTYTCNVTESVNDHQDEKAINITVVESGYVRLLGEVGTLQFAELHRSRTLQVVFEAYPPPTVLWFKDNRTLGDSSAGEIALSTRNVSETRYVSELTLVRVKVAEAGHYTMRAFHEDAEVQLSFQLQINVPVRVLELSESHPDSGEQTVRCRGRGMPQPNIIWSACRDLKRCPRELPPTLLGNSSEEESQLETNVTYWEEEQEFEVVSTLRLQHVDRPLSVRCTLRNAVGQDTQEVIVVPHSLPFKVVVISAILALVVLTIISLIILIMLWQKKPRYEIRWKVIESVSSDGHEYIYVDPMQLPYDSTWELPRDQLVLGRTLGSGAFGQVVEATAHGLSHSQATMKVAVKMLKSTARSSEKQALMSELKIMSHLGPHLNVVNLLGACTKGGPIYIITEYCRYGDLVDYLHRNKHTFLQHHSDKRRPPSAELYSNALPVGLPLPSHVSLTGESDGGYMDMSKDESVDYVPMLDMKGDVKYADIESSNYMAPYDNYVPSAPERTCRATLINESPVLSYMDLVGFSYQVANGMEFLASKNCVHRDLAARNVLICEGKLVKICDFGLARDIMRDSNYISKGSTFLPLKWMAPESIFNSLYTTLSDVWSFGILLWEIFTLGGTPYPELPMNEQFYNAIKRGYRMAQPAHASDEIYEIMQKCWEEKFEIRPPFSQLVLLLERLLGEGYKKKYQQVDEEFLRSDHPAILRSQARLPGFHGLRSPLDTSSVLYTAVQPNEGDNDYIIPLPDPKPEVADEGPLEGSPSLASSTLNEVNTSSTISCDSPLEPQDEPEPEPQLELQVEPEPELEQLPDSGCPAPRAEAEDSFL
Outline: as §1

[5] = molecular target: T5, kinases of the scanMAX Kinase assay panel (Homo sapiens, UniProt P10721, A829P); details: KIT(A829P); 1 uM
T5 construct: purchased DiscoverX Co. (contract measurement) scanMAX Kinase assay panel
T5 sequence (P10721 26-976 A829P): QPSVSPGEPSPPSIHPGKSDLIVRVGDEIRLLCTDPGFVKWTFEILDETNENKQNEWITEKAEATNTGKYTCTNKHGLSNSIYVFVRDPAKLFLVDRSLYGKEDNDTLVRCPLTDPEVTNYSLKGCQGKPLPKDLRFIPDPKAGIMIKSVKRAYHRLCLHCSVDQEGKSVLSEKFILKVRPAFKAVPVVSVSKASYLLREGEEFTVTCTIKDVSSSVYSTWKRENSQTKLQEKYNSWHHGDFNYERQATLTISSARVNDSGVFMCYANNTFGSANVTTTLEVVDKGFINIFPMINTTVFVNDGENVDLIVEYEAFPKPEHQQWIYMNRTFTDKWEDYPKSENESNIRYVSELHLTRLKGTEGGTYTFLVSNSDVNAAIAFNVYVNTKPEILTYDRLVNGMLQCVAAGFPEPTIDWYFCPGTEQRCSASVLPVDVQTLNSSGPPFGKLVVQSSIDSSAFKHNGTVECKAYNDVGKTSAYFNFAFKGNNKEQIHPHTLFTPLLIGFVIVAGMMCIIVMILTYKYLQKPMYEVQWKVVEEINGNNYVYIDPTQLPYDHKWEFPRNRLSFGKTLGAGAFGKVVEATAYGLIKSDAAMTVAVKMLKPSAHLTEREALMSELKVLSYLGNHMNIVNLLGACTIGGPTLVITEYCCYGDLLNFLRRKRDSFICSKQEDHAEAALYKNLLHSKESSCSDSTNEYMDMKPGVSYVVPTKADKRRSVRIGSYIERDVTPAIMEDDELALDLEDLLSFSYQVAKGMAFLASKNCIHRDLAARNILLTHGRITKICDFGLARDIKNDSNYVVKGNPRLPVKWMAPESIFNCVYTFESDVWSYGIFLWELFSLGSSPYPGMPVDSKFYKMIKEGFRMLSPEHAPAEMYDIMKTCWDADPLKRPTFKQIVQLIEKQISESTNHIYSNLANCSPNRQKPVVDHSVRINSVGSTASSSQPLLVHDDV
Outline: as §1

[6] = molecular target: T6, kinases of the scanMAX Kinase assay panel (Homo sapiens, UniProt P17948); details: FLT1; 1 uM
T6 construct: purchased DiscoverX Co. (contract measurement) scanMAX Kinase assay panel
T6 sequence (P17948 27-1338): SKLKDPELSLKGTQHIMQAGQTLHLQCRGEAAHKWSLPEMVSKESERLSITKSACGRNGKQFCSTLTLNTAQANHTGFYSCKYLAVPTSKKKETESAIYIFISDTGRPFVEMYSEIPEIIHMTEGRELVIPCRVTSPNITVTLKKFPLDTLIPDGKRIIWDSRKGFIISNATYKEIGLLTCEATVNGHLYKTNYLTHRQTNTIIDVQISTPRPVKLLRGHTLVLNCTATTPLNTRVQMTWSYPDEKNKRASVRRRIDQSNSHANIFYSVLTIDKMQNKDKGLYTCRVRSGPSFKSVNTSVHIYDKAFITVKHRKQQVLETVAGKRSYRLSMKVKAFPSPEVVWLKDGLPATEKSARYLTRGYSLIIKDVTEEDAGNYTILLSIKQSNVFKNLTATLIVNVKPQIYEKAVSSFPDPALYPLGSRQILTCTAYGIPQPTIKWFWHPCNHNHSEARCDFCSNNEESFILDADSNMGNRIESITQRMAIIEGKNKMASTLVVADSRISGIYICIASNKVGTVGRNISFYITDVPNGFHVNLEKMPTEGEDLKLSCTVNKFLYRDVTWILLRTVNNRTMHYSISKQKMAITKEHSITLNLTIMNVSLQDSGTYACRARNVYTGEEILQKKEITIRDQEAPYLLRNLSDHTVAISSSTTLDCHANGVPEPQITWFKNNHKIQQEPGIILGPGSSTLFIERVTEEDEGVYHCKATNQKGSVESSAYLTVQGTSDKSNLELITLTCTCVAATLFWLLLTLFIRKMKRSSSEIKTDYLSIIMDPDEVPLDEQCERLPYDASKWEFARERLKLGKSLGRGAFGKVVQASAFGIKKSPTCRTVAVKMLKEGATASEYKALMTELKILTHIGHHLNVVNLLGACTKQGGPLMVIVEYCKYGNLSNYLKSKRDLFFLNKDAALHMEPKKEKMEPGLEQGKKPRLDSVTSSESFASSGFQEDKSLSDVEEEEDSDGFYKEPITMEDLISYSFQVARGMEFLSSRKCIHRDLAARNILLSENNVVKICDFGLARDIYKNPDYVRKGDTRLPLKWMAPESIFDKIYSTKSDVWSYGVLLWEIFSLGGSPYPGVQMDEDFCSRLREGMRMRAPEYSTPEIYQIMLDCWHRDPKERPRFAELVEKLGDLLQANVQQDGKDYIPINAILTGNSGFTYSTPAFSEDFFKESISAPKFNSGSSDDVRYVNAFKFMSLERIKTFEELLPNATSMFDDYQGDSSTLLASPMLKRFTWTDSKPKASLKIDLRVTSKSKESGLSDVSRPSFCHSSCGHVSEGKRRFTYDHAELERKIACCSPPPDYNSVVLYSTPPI
Outline: as §1

[7] = molecular target: T7, kinases of the scanMAX Kinase assay panel (Homo sapiens, UniProt P29322); details: EPHA8; 1 uM
T7 construct: purchased DiscoverX Co. (contract measurement) scanMAX Kinase assay panel
T7 sequence (P29322 28-1005): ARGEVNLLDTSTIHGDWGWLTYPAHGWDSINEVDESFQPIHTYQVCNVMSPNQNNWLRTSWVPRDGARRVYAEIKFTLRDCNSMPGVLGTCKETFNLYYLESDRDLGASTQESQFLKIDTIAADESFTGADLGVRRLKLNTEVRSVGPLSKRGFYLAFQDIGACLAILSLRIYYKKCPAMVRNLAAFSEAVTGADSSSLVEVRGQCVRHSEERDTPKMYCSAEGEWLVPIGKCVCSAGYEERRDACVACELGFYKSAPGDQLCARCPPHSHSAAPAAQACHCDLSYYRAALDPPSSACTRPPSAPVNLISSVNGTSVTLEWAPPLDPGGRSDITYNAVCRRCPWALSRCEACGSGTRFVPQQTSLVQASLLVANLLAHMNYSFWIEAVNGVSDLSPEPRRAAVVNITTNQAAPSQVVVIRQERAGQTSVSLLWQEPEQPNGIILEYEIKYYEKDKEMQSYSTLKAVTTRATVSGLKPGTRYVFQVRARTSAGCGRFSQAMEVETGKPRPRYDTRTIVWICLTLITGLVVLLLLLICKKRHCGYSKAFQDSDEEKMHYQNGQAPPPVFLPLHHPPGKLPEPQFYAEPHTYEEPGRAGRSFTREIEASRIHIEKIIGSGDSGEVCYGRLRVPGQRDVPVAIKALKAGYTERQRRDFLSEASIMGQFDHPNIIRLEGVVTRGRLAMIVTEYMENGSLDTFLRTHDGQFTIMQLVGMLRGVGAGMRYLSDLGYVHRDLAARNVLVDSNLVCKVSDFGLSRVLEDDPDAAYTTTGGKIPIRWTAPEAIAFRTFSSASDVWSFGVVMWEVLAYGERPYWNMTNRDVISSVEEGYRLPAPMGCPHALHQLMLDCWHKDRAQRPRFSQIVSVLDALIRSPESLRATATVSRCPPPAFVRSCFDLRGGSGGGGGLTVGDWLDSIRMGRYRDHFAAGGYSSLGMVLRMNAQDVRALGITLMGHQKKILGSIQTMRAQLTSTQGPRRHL
Outline: as §1

[8] = molecular target: T8, kinases of the scanMAX Kinase assay panel (Homo sapiens, UniProt P80192); details: MLK1; 1 uM
T8 construct: purchased DiscoverX Co. (contract measurement) scanMAX Kinase assay panel
T8 sequence (P80192 whole entry): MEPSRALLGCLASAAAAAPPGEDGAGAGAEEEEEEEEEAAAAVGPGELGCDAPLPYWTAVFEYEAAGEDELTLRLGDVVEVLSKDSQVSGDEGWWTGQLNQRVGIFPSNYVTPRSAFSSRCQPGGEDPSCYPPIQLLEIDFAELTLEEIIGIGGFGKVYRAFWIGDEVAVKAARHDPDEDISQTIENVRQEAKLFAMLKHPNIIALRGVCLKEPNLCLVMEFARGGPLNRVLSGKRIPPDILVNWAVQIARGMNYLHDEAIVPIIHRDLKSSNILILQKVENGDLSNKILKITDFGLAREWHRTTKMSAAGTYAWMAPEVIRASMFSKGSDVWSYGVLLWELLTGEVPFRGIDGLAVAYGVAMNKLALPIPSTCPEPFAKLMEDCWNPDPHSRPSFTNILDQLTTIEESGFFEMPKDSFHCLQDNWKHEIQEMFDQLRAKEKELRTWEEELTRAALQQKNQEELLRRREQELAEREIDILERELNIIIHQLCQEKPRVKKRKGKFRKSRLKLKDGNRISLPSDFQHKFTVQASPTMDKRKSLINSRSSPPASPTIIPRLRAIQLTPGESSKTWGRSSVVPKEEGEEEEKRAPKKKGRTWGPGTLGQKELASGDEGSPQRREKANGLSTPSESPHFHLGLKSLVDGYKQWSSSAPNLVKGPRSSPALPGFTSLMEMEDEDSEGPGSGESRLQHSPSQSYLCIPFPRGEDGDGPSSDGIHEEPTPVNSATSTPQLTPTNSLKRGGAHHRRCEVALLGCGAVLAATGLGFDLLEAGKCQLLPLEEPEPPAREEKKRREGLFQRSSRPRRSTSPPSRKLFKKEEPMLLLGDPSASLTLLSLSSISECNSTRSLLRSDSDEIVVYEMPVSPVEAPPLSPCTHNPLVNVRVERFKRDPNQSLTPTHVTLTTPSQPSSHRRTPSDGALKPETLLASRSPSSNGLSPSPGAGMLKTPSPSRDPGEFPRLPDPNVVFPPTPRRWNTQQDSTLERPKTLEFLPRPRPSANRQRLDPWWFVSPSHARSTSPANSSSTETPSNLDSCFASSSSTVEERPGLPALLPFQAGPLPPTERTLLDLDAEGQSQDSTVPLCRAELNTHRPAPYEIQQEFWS
Outline: as §1

[9] = molecular target: T9, kinases of the scanMAX Kinase assay panel (Homo sapiens, UniProt Q16816); details: PHKG1; 1 uM
T9 construct: purchased DiscoverX Co. (contract measurement) scanMAX Kinase assay panel
Outline: as §1

[10] = molecular target: T10, kinases of the scanMAX Kinase assay panel (Homo sapiens, UniProt Q96J92); details: kinase WNK4; 1 uM in DMSO
T10 construct: purchased DiscoverX Co. (contract measurement) scanMAX Kinase assay panel
Outline: as §1

[11] = molecular target: T11, kinases of the scanMAX Kinase assay panel (Homo sapiens, UniProt Q96RR4); details: CAMKK2; 1 uM
T11 construct: purchased DiscoverX Co. (contract measurement) scanMAX Kinase assay panel
Outline: as §1

[12] = molecular target: T12, kinases of the scanMAX Kinase assay panel (Plasmodium falciparum, UniProt P61075); details: PFPK5(P. falciparum); 1 uM
T12 construct: purchased DiscoverX Co. (contract measurement) scanMAX Kinase assay panel
T12 sequence (P61075 whole entry): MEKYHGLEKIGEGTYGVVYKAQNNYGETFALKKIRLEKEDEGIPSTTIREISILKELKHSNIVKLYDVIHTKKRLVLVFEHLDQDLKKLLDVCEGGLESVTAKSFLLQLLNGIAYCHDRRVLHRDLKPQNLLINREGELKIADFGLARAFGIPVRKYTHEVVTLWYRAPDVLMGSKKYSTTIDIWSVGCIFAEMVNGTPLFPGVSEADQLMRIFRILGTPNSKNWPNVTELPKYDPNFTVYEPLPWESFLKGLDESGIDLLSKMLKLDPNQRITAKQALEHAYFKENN
Outline: as §1

Row | Compound | remaining binding at 1 µM [1] [%] | remaining binding at 1 µM [2] [%] | remaining binding at 1 µM [3] [%] | remaining binding at 1 µM [4] [%] | remaining binding at 1 µM [5] [%] | remaining binding at 1 µM [6] [%] | remaining binding at 1 µM [7] [%] | remaining binding at 1 µM [8] [%] | remaining binding at 1 µM [9] [%] | remaining binding at 1 µM [10] [%] | remaining binding at 1 µM [11] [%] | remaining binding at 1 µM [12] [%]
1 | CNc1nc(Nc2ccc(C(=O)N3CCOCC3)cc2OC)nc2[nH]cc(C#N)c12 [Example 1, 2-((2-methoxy-4-(morpholine-4-carbonyl)phenyl)amino)-4-(methylamino)-7H-pyrrolo[2,3-d]pyrimidine-5-carbonitrile] | 86 | 100 | 13 | 84 | 60 | 99 | 97 | 81 | 13 | 81 | 65 | 76
2 | CC1(Nc2nc(Nc3cnn([C@H]4CCN(C5COC5)C[C@@H]4F)c3Cl)nc3[nH]cc(C#N)c23)CC1 [Example 52, 2-((5-chloro-1-((3S,4S)-3-fluoro-1-(oxetane-3-yl)piperidine-4-yl)-1H-pyrazole-4-yl)amino)((1-methylcyclopropyl)amino)-7H-pyrrolo[2,3-d]pyrimidine-5-carbonitrile] | 76 | 76 | 1.2 | 0.35 | 11 | 6.2 | 86 | 0.5 | 11 | 100 | 5.7 | 100
3 | CCNc1nc(Nc2ccc(C(=O)N3CCC(N4CCOCC4)CC3)cc2OC)nc2[nH]cc(C(F)(F)F)c12 [Example 104, (4-((4-(ethylamino)-5-(trifluoromethyl)-7H-pyrrolo[2,3-d]pyrimidine-2-yl)amino)-3-methoxyphenyl)(4-morpholinopiperidine-1-yl)methanone] | 100 | 95 | 15 | 60 | 100 | 100 | 93 | 66 | 1 | 100 | 20 | 100
